Test results published in patent publication US20240336611A1 (Insilico Medicine IP Limited, priority 2021, published 2024).

Molecular target: T1, TNIK kinase [amino acid sequence (1-367), Invitrogen] (Homo sapiens, UniProt Q9UKE5)
T1 construct: purchased Invitrogen
Experiment: TNIK kinase inhibition assay (Z-lyte FRET-peptide)
Type: biochemical
Settings: 0.625 nM TNIK kinase, 2 μM Ser/Thr 7 peptide, 64 μM ATP, one hour at room temperature
Description: Z-lyte assay kit was purchased from Invitrogen. A site-specific protease recognizes and cleaves non-phosphorylated FRET-peptides. Phosphorylation of FRET-peptides suppresses cleavage by protease and will maintain FRET from donor to acceptor.
5 μl of Development Reagent A solution was then added to cleave non-phosphorylated peptide with a dilution 1:65000 in Development Buffer B. The assay plate was incubated at room temperature for another one hour and then read in the Envision plate reader (PerkinElmer).

T1 sequence (Q9UKE5 1-367): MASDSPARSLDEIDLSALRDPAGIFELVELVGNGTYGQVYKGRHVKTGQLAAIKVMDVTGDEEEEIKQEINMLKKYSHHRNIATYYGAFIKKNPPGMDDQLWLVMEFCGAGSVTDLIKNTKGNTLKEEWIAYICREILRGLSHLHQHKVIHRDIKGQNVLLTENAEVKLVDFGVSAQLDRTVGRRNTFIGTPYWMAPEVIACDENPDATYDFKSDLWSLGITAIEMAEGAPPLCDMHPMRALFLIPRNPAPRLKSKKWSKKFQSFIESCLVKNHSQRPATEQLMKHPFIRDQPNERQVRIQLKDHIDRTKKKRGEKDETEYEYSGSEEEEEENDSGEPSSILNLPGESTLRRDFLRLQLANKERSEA

| IC50 | Molecule |
| --- | --- |
| > 150 nM | CC(C)n1cnc(-c2ccc(F)cc2)c1-c1cnc(C(=O)Nc2ccc(N3CCN(C)CC3)cc2)s1 [Compound 1, 5-(4-(4-fluorophenyl)-1-isopropyl-1H-imidazol-5-yl)-N-(4-(4-methylpiperazin-1-yl)phenyl)thiazole-2-carboxamide] |
| > 150 nM | CC(C)n1cnc(-c2ccc(F)cc2)c1-c1ncc(C(=O)Nc2ccc(N3CCN(C)CC3)cc2)s1 [Compound 3, 2-(4-(4-fluorophenyl)-1-isopropyl-1H-imidazol-5-yl)-N-(4-(4-methylpiperazin-1-yl)phenyl)thiazole-5-carboxamide] |
| 1 to 12 nM | CC(C)n1cnc(-c2ccc(F)cc2)c1-c1csc(C(=O)Nc2ccc(N3CCN(C)CC3)cc2)n1 [Compound 4, 4-(4-(4-fluorophenyl)-1-isopropyl-1H-imidazol-5-yl)-N-(4-(4-methylpiperazin-1-yl)phenyl)thiazole-2-carboxamide] |
| 12 to 150 nM | CN1CCN(c2ccc(NC(=O)c3c[nH]c(-c4c(-c5ccc(F)cc5)ncn4C4CC4)n3)cc2)CC1 [Compound 15, 3′-cyclopropyl-5′-(4-fluorophenyl)-N-(4-(4-methylpiperazin-1-yl)phenyl)-1H,3′H-[2,4′-biimidazole]-4-carboxamide] |
| 1 to 12 nM | CC(C)n1cnc(-c2ccc(F)cc2)c1-c1nc(C(=O)Nc2ccc(N3CCN(C)CC3)c(F)c2)c[nH]1 [Compound 16, N-(3-fluoro-4-(4-methylpiperazin-1-yl)phenyl)-5′-(4-fluorophenyl)-3′-isopropyl-1H,3′H-[2,4′-biimidazole]-4-carboxamide] |
| 1 to 12 nM | CC(C)n1cnc(-c2ccc(F)cc2)c1-c1nc(C(=O)Nc2ccc(N3CCN(C)CC3)c(F)c2F)c[nH]1 [Compound 17, N-(2,3-difluoro-4-(4-methylpiperazin-1-yl)phenyl)-5′-(4-fluorophenyl)-3′-isopropyl-1H,3′H-[2,4′-biimidazole]-4-carboxamide] |
| 12 to 150 nM | Cc1cc(NC(=O)c2cnc(-c3c(-c4ccc(F)cc4)ncn3C(C)C)[nH]2)ccc1N1CCN(C)CC1 [Compound 18, 5′-(4-fluorophenyl)-3′-isopropyl-N-(3-methyl-4-(4-methylpiperazin-1-yl)phenyl)-1H,3′H-[2,4′-biimidazole]-5-carboxamide] |
| 1 to 12 nM | CC(C)n1cnc(-c2ccc(F)cc2)c1-c1ncc(C(=O)Nc2ccc(N3CCC4(CC3)CN(C)C4)cc2)[nH]1 [Compound 19, 5′-(4-fluorophenyl)-3′-isopropyl-N-(4-(2-methyl-2,7-diazaspiro[3.5]nonan-7-yl)phenyl)-1H,3′H-[2,4′-biimidazole]-5-carboxamide] |
| 1 to 12 nM | CC(C)n1cnc(-c2ccc(F)cc2)c1-c1ncc(C(=O)Nc2ccc(N3CC4(CN(C)C4)C3)cc2)[nH]1 [Compound 20, 5′-(4-fluorophenyl)-3′-isopropyl-N-(4-(6-methyl-2,6-diazaspiro[3.3]heptan-2-yl)phenyl)-1H,3′H-[2,4′-biimidazole]-5-carboxamide] |
| 12 to 150 nM | CC(C)n1cnc(-c2ccc(F)cc2)c1-c1nc(C(=O)Nc2ccc(N3CCN(C)CC3)nc2)c[nH]1 [Compound 22, 5′-(4-fluorophenyl)-3′-isopropyl-N-(6-(4-methylpiperazin-1-yl)pyridin-3-yl)-1H,3′H-[2,4′-biimidazole]-4-carboxamide] |
| 1 to 12 nM | CC(C)n1cnc(-c2ccc(F)cc2)c1-c1nc(C(=O)Nc2ccc(N3C[C@H]4CC[C@@H](C3)N4C)nc2)c[nH]1 [Compound 25, 5′-(4-fluorophenyl)-3′-isopropyl-N-(6-((1R,5S)-8-methyl-3,8-diazabicyclo[3.2.1]octan-3-yl)pyridin-3-yl)-1H,3′H-[2,4′-biimidazole]-4-carboxamide] |
| 12 to 150 nM | CC(C)n1cnc(-c2ccc(F)cc2)c1-c1coc(C(=O)Nc2ccc(N3CCN(C)CC3)cc2F)n1 [Compound 27, N-(2-fluoro-4-(4-methylpiperazin-1-yl)phenyl)-4-(4-(4-fluorophenyl)-1-isopropyl-1H-imidazol-5-yl)oxazole-2-carboxamide] |
| 1 to 12 nM | CN1CCN(c2ccc(NC(=O)c3csc(-c4c(-c5ccc(F)cc5)nc5n4CCOC5)n3)nc2)CC1 [Compound 29, 2-(2-(4-fluorophenyl)-6,8-dihydro-5H-imidazo[2,1-c][1,4]oxazin-3-yl)-N-(5-(4-methylpiperazin-1-yl)pyridin-2-yl)thiazole-4-carboxamide] |
| 1 to 12 nM | CC(C)n1cnc(-c2ccc(F)cc2)c1-c1csc(C(=O)Nc2ccc(N3C[C@H]4CC[C@@H](C3)N4C)cn2)n1 [Compound 38, 4-(4-(4-fluorophenyl)-1-isopropyl-1H-imidazol-5-yl)-N-(5-((1R,5S)-8-methyl-3,8-diazabicyclo[3.2.1]octan-3-yl)pyridin-2-yl)thiazole-2-carboxamide] |
| 12 to 150 nM | CC(C)n1cnc(-c2ccc(F)cc2)c1-c1coc(C(=O)Nc2ccc(N3CC4CCC(C3)N4C)cn2)n1 [Compound 39, 4-(4-(4-fluorophenyl)-1-isopropyl-1H-imidazol-5-yl)-N-(5-(8-methyl-3,8-diazabicyclo[3.2.1]octan-3-yl)pyridin-2-yl)oxazole-2-carboxamide] |
| > 150 nM | CC(C)n1cnc(-c2ccc(F)cc2)c1-c1nc(C(=O)Nc2ncc(N3CCN(C)CC3)cn2)cs1 [Compound 46, 2-(4-(4-fluorophenyl)-1-isopropyl-1H-imidazol-5-yl)-N-(5-(4-methylpiperazin-1-yl)pyrimidin-2-yl)thiazole-4-carboxamide] |
| 1 to 12 nM | CN1C2CCC1CN(c1ccc(NC(=O)c3c[nH]c(-c4c(-c5ccc(F)cc5)ncn4C4CC4)n3)nc1)C2 [Compound 47, 3′-cyclopropyl-5′-(4-fluorophenyl)-N-(5-(8-methyl-3,8-diazabicyclo[3.2.1]octan-3-yl)pyridin-2-yl)-1H,3′H-[2,4′-biimidazole]-4-carboxamide] |
| 1 to 12 nM | CN1[C@@H]2CC[C@H]1CN(c1ccc(NC(=O)c3c[nH]c(-c4c(-c5ccc(F)cc5)ncn4C4CCC4)n3)nc1)C2 [Compound 48, 3′-cyclobutyl-5′-(4-fluorophenyl)-N-(5-((1R,5S)-8-methyl-3,8-diazabicyclo[3.2.1]octan-3-yl)pyridin-2-yl)-1H,3′H-[2,4′-biimidazole]-4-carboxamide] |
| 12 to 150 nM | CN1C2CC1CN(c1ccc(NC(=O)c3c[nH]c(-c4c(-c5ccc(F)cc5)ncn4C4CC4)n3)nc1)C2 [Compound 49, 3′-cyclopropyl-5′-(4-fluorophenyl)-N-(5-(6-methyl-3,6-diazabicyclo[3.1.1]heptan-3-yl)pyridin-2-yl)-1H,3′H-[2,4′-biimidazole]-4-carboxamide] |
| 1 to 12 nM | CN1C2CC1CN(c1ccc(NC(=O)c3c[nH]c(-c4c(-c5ccc(F)cc5)ncn4C4CCC4)n3)nc1)C2 [Compound 50, 3′-cyclobutyl-5′-(4-fluorophenyl)-N-(5-(6-methyl-3,6-diazabicyclo[3.1.1]heptan-3-yl)pyridin-2-yl)-1H,3′H-[2,4′-biimidazole]-4-carboxamide] |
| 1 to 12 nM | CC(C)n1cnc(-c2ccc(F)cc2)c1-c1nc(C(=O)Nc2ccc(C3CCN(C)CC3)cn2)c[nH]1 [Compound 52, 5′-(4-fluorophenyl)-3′-isopropyl-N-(5-(1-methylpiperidin-4-yl)pyridin-2-yl)-1H,3′H-[2,4′-biimidazole]-4-carboxamide] |
| 12 to 150 nM | O=C(Nc1ccc(N2CCOCC2)cn1)c1c[nH]c(-c2c(-c3ccc(F)cc3)ncn2C2CC(F)(F)C2)n1 [Compound 67, 3′-(3,3-difluorocyclobutyl)-5′-(4-fluorophenyl)-N-(5-morpholinopyridin-2-yl)-1H,3′H-[2,4′-biimidazole]-4-carboxamide] |
| > 150 nM | O=C(Nc1ccc(N2CCC2)cn1)c1coc(-c2c(-c3ccc(F)cc3)ncn2C2CC(F)(F)C2)n1 [Compound 69, N-(5-(azetidin-1-yl)pyridin-2-yl)-2-(1-(3,3-difluorocyclobutyl)-4-(4-fluorophenyl)-1H-imidazol-5-yl)oxazole-4-carboxamide] |
| > 150 nM | O=C(Nc1ccc(N2CCOCC2)cn1)c1coc(-c2c(-c3ccc(F)cc3)ncn2C2COC2)n1 [Compound 71, 2-(4-(4-fluorophenyl)-1-(oxetan-3-yl)-1H-imidazol-5-yl)-N-(5-morpholinopyridin-2-yl)oxazole-4-carboxamide] |
| 12 to 150 nM | O=C(Nc1ccc(N2CCC2)cn1)c1c[nH]c(-c2c(-c3ccc(F)cc3)ncn2C2CC(F)(F)C2)n1 [Compound 73, N-(5-(azetidin-1-yl)pyridin-2-yl)-3′-(3,3-difluorocyclobutyl)-5′-(4-fluorophenyl)-1H,3′H-[2,4′-biimidazole]-4-carboxamide] |
| 1 to 12 nM | O=C(Nc1ccc(N2CCC2)cn1)c1csc(-c2c(-c3ccc(F)cc3)ncn2C2COC2)n1 [Compound 75, N-(5-(azetidin-1-yl)pyridin-2-yl)-2-(4-(4-fluorophenyl)-1-(oxetan-3-yl)-1H-imidazol-5-yl)thiazole-4-carboxamide] |
| 12 to 150 nM | O=C(Nc1ccc(N2CCCC2)cn1)c1c[nH]c(-c2c(-c3ccc(F)cc3)ncn2C2CC(F)(F)C2)n1 [Compound 76, 3′-(3,3-difluorocyclobutyl)-5′-(4-fluorophenyl)-N-(5-(pyrrolidin-1-yl)pyridin-2-yl)-1H,3′H-[2,4′-biimidazole]-4-carboxamide] |

| Molecule | IC50 |
| --- | --- |
| 2-(4-(4-fluorophenyl)-1-isopropyl-1H-imidazol-5-yl)-N-(5-((1R,5S)-8-methyl-8-azabicyclo[3.2.1]octan-3-yl)pyridin-2-yl)oxazole-4-carboxamide [Compound 62] | 12 to 150 nM |
| CC(C)n1cnc(-c2ccc(F)cc2)c1-c1nc(C(=O)Nc2ccc(C3C[C@H]4CC[C@@H](C3)N4C)cn2)cs1 (stereo partly drawn) [Compound 60, 2-(4-(4-fluorophenyl)-1-isopropyl-1H-imidazol-5-yl)-N-(5-((1R,5S)-8-methyl-8-azabicyclo[3.2.1]octan-3-yl)pyridin-2-yl)thiazole-4-carboxamide] | 1 to 12 nM |
